In patent publication US10968215B2 (SHANGHAI HAIHE PHARMACEUTICAL CO., LTD., priority 2016, dated 2021):

biological target: PRC2 complex (EZH2 Y641F/EED/SUZ12/RbAp48/AEBP2) (Homo sapiens (Human), UniProt Q15910, Y641F); test: Activity of a compound to PRC2 complex (EZH2 Y641F), HTRF; conditions: not given
Sequence (Q15910 whole entry Y641F): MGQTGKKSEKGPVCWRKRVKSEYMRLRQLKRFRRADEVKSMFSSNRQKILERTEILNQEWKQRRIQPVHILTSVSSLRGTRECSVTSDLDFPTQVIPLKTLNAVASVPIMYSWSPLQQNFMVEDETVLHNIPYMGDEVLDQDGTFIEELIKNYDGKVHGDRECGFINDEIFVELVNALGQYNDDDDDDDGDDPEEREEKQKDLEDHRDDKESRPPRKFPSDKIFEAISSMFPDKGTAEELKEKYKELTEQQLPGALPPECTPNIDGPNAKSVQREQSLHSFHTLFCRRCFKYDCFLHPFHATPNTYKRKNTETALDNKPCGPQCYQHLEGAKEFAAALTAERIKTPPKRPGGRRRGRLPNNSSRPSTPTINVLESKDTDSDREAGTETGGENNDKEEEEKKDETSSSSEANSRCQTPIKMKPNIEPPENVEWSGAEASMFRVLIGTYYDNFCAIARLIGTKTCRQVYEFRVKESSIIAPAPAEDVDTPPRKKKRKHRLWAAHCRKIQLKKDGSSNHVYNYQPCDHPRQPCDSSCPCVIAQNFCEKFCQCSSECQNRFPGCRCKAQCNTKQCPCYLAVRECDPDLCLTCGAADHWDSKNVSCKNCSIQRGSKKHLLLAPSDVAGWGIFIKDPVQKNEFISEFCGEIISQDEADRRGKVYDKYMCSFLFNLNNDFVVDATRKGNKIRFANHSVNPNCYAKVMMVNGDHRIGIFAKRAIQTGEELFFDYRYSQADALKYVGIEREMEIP
Sequence (O75530 whole entry partner): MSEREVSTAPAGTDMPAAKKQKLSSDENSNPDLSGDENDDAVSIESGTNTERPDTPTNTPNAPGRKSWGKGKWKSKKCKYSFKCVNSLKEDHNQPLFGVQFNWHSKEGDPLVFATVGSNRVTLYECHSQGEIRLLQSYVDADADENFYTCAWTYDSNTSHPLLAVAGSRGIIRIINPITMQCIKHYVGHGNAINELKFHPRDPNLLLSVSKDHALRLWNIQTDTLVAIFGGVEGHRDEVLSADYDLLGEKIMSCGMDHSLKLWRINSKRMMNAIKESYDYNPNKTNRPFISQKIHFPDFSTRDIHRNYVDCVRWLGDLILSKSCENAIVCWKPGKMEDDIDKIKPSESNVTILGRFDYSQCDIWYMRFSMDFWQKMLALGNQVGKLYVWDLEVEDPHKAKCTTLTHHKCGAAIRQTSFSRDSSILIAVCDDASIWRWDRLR
Sequence (Q15022 whole entry partner): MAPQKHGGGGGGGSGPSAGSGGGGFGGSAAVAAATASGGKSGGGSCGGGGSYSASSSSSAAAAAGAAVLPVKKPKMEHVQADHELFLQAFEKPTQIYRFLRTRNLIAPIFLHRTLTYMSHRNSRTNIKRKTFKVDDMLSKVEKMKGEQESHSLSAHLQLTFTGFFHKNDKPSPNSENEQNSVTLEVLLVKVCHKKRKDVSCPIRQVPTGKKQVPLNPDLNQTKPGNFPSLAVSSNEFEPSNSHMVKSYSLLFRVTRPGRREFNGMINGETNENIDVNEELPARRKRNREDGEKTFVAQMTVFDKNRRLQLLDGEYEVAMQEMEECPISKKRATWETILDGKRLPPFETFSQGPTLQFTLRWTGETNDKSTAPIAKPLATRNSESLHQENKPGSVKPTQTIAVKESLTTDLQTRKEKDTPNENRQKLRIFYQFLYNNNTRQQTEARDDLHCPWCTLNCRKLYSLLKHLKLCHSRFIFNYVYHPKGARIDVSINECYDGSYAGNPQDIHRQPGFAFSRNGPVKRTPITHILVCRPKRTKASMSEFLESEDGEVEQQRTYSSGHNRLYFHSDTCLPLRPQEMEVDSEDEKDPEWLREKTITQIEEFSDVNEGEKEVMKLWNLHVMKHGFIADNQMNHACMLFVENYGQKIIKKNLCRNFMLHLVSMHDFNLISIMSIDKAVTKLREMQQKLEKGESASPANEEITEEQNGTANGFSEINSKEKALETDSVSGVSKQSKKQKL
Sequence (Q09028 whole entry partner): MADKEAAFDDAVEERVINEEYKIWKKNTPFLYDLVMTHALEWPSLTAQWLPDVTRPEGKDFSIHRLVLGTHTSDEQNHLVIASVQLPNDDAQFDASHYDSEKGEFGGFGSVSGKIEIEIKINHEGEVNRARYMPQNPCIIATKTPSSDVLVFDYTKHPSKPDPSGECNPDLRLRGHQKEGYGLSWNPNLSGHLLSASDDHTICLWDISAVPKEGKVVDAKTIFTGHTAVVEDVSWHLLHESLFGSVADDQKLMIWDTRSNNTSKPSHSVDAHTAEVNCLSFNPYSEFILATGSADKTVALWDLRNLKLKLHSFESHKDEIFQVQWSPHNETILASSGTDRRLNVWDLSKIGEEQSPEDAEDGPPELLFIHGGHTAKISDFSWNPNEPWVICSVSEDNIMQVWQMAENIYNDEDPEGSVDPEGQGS
Sequence (Q6ZN18 whole entry partner): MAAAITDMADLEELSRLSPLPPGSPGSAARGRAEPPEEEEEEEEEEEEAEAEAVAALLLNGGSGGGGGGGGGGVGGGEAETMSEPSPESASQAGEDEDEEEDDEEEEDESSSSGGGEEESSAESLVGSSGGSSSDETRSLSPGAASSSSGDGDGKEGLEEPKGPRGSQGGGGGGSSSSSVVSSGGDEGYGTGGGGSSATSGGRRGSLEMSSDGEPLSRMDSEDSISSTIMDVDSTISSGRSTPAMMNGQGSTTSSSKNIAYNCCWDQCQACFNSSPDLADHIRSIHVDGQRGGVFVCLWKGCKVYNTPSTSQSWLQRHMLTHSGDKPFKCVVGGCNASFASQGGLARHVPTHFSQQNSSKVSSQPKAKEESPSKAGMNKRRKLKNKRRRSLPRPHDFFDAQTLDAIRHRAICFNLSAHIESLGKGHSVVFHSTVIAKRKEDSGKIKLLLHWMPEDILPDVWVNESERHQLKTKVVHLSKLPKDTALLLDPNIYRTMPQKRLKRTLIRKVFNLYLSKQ

Molecule | IC50 [nM]
Cc1[nH]c(=O)c(CNC(=O)c2cc3c(-c4ccc(N)nc4)ccn3c(C(C)N3CCN(CC(F)(F)F)CC3)c2C)c2c1CN(CC(C)C)CC2 (stereo not drawn) [Compound 188, 1-(6-aminopyridin-3-yl)-N-((7-isobutyl-1-methyl-3-oxo-2,3,5,6,7,8-hexahydro-2,7-naphthyridin-4-yl)methyl)-6-methyl-5-(1-(4-(2,2,2-trifluoroethyl)piperazin-1-yl)ethyl)indolizine-7-carboxamide] | 100 to 1000
COc1cc(C)[nH]c(=O)c1CNC(=O)c1cc2c(-c3ccnn3C)ccn2c(C(C)N2CCOCC2)c1C (stereo not drawn) [Example 132, N-((4-methoxy-6-methyl-2-oxo-1,2-dihydropyridin-3-yl)methyl)-6-methyl-1-(1-methyl-1H-pyrazol-5-yl)-5-(1-morpholinylethyl)indolizine-7-carboxamide] | < 100
CCCc1cc(C)[nH]c(=O)c1CNC(=O)c1cc2c(-c3ccc(N)nc3)ccn2c(C(C)N2CCN(CC(F)(F)F)CC2)c1C (stereo not drawn) [Compound 185, 1-(6-aminopyridin-3-yl)-6-methyl-N-((6-methyl-2-oxo-4-propyl-1,2-dihydropyridine-3-yl)methyl)-5-(1-(4-(2,2,2-trifluoroethyl)piperazin-1-yl)ethyl)indolizine-7-carboxamide] | < 100
COc1ccc(-c2cc3cc(C(=O)NCc4c(C)cc(C)[nH]c4=O)c(C)c(C(C)N4CCOCC4)n3c2)cc1 (stereo not drawn) [Example 97, N-((4,6-dimethyl-2-oxo-1,2-dihydropyridin-3-yl)methyl)-2-(4-methoxyphenyl)-6-methyl-5-(1-morpholinoethyl)indolizine-7-carboxamide] | 100 to 1000

same assay, conditions: read-out: IC50 (EZH2_Y641F); EZH2 Y641F PRC2 complex, HTRF; class symbols

Molecule | IC50 [nM]
CNc1cc(-c2ccn3c([C@H](C)N4CCN(CC(F)(F)F)CC4)c(C)c(C(=O)NCc4c(OC)cc(C)[nH]c4=O)cc23)ccn1 (single isomer, unassigned) [Compound 182, (S)—N-((4-methoxy-6-methyl-2-oxo-1,2-dihydropyridin-3-yl)methyl)-6-methyl-1-(2-(methylamino)pyridin-4-yl)-5-(1-(4-(2,2,2-trifluoroethyl)piperazin-1-yl)ethyl)indolizine-7-formamide or (R)—N-((4-methoxy-6-methyl-2-oxo-1,2-dihydropyridin-3-yl)methyl)-6-methyl-1-(2-(methylamino)pyridin-4-yl)-5-(1-(4-(2,2,2-trifluoroethyl)piperazin-1-yl)ethyl)indolizine-7-formamide] | 100 to 1000
COc1cc(C)[nH]c(=O)c1CNC(=O)c1cc2c(-c3cccnc3N(C)C)ccn2c(C(C)N2CCN(CC(F)(F)F)CC2)c1C (stereo not drawn) [Compound 179, 1-(2-(dimethylamino)pyridin-3-yl)-N-((4-methoxy-6-methyl-2-oxo-1,2-dihydropyridin-3-yl)methyl)-6-methyl-5-(1-(4-(2,2,2-trifluoroethyl)piperazin-1-yl)ethyl)indolizine-7-carboxamide] | < 100
Cc1cc(C)c(CNC(=O)c2cc3cc(-c4cccc(CN5CCOCC5)c4)cn3c(C(C)N3CCOCC3)c2C)c(=O)[nH]1 (stereo not drawn) [Example 80, N-((4,6-dimethyl-2-oxo-1,2-dihydropyridin-3-yl)methyl)-5-(1-morpholine-1-ethyl)-6-methyl-2-(3-(morpholinemethylene)phenyl)indolizin-7-amide] | 100 to 1000
COc1cc(C)[nH]c(=O)c1CNC(=O)c1cc2c(-c3cc(C)nc(C)c3)ccn2c(C(C)N2CCN(CC(F)(F)F)CC2)c1C (stereo not drawn) [Compound 173] | < 100
Cc1cc(C)c(CNC(=O)c2cc3cc(-c4cnn(C5CCNCC5)c4)cn3c(C(C)N3CCOCC3)c2C)c(=O)[nH]1 (stereo not drawn) [Example 44, N-((4,6-dimethyl-2-oxo-1,2-dihydropyridin-3-yl)methyl)-6-methyl-5-(1-morphinolinylethyl)-2-(1-(piperidin-4-yl)-1H-pyrazol-4-yl)indolizine-7-carboxamide] | < 100
Cc1cc(C)c(CNC(=O)c2cc3cncn3c(C(C)N3CCOCC3)c2C)c(=O)[nH]1 (stereo not drawn) [Example 71, N-((4,6-dimethyl-2-oxo-1,2-dihydropyridin-3-yl)methyl)-6-methyl-5-(1-morphinolinylethyl)imidazo[1,5-a]pyridine-7-carboxamide] | < 100
N-((4-methoxy-6-methyl-2-oxo-1,2-dihydropyridin-3-yl)methyl)-6-methyl-1-(2-methylpyridin-3-yl)-5-(1-(4-(2,2,2-trifluoroethyl)piperazin-1-yl)ethyl)indolizine-7-carboxamide [Compound 166] | < 100
CCN(c1c(C)c(C(=O)NCc2c(C)cc(C)[nH]c2=O)cc2cc(Br)cn12)C1CNC1 [Example 59] | 1000 to 10000
CCN(c1c(C)c(C(=O)NCc2c(OC)cc(C)[nH]c2=O)cc2c(-c3ccnc(N(C)C)c3)ncn12)C1CCN(CC(F)(F)F)CC1 [Compound 204, 1-(2-(dimethylamino)pyridin-4-yl)-5-(ethyl(1-(2,2,2-trifluoroethyl)piperidin-4-yl)amino)-N-((4-methoxy-6-methyl-2-oxo-1,2-dihydropyridin-3-yl)methyl)-6-methylimidazo[1,5-a]pyridine-7-carboxamide] | < 100
CCN(c1c(C)c(C(=O)NCc2c(C)cc(C)[nH]c2=O)cc2cc(-c3cnn(C)c3)cn12)C1CCOCC1 [Example 66, N-((4,6-dimethyl-2-oxo-1,2-dihydropyridin-3-yl)methyl)-5-(ethyl(tetrahydro-2H-pyran-4-yl)amino)-6-methyl-2-(1-methyl-1H-pyrazol-4-yl)indolizin-7-carboxamide] | < 100
(S)-1-Chloro-N-((4,6-dimethyl-2-oxo-1,2-dihydropyridin-3-yl)methyl)-6-methyl-5-(1-morphinolinylethyl)pyridazin-7-carboxamide or (R)-1-chloro-N-((4,6-dimethyl-2-oxo-1,2-dihydro)pyridin-3-yl)methyl)-6-methyl-5-(1-morphinolinylethyl)pyridazin-7-carboxamide [Compound 29] | 100 to 1000
CCN(c1c(C)c(C(=O)NCc2c(C)cc(C)[nH]c2=O)cc2cc(-c3ccnn3C)cn12)C1CCOCC1 [Example 65, N-((4,6-dimethyl-2-oxo-1,2-dihydropyridin-3-yl)methyl)-5-(ethyl(tetrahydro-2H-pyran-4-yl)amino)-6-methyl-2-(1-methyl-1H-pyrazol-5-yl)indolizin-7-carboxamide] | < 100
COc1cc(C)[nH]c(=O)c1CNC(=O)c1cc2c(-c3cc(C)nc(C)c3)ccn2c([C@H](C)N2CCN(CC(F)(F)F)CC2)c1C (single isomer, unassigned) [Compound 174, (S)-1-(2,6-dimethylpyridin-4-yl)-N-((4-methoxy-6-methyl-2-oxo-1,2-dihydropyridine-3-yl)methyl)-6-methyl-5-(1-(4-(2,2,2-trifluoroethyl)piperazin-1-yl)ethyl)indolizine-7-carboxamide or (R) 1-(2,6-dimethylpyridin-4-yl)-N-((4-methoxy-6-methyl-2-oxo-1,2-dihydropyridine-3-yl)methyl)-6-methyl-5-(1-(4-(2,2,2-trifluoroethyl)piperazin-1-yl)ethyl)indolizine-7-carboxamide] | < 100
Cc1cc(C)c(CNC(=O)c2cc3cc(-c4ccc(N5CCOCC5)cc4)cn3c(C(C)N3CCOCC3)c2C)c(=O)[nH]1 (stereo not drawn) [Example 32, N-((4,6-dimethyl-2-oxo-1,2-dihydropyridin-3-yl)methyl)-6-methyl-5-(1-morphinolinylethyl)-2-(4-morphinolinylphenyl)indolizine-7-carboxamide] | < 100
